From article PMC4954776 (Nature chemical biology, 2013)
One block for each compound: values may come before it.

Tests used:
[1] = target: T1, PERK kinase domain dimerization (Mus musculus, UniProt Q9Z2B5, DEL661-875); experiment: Sedimentation velocity analytical ultracentrifugation of PERK kinase domain; type: binding, Murine; conditions: saturating concentrations; 40 μM inhibitor, 500 μM ADP with 2 mM MgCl2
T1 sequence (Q9Z2B5 with tags, fused parts or gaps DEL661-875): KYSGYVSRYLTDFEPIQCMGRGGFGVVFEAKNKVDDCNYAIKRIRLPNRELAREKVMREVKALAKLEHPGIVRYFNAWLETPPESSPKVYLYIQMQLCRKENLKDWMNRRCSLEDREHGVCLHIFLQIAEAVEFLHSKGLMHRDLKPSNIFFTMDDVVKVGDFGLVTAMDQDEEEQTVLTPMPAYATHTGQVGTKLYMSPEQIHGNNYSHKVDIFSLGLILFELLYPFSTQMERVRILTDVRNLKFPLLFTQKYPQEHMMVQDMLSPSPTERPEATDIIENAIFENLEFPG

[2] = target: BRAF kinase domain (residues 444 to 723, BRAF16mut) dimerization (Homo sapiens, UniProt P15056, A688R/F667E/I543A/I544S/I551K/K630S/K723G/L588N/L706S/L716E/P722S/Q562R/Q709R/S713E/Y673S); type: binding; conditions: 40 μM inhibitor, or 200 μM AMP-PNP / ADP with 200 μM MgCl2; Fig. 5e
[3] = target: BRAFKD/BRAFKD (RlucII-BRAFKD-CAAX / GFP10-BRAFKD-CAAX) (Homo sapiens, UniProt P15056); experiment: BRET titration curves, BRAFKD homodimerization biosensor; type: cell-based; conditions: Fig. 1c
[4] = system: RAF family members (ARAF, BRAF, CRAF, KSR1, KSR2) kinase domain dimers; experiment: Panel of RAF dimerization BRET biosensors; type: cell-based; conditions: for RAFKD dimer induction profile across biosensor panel: dose-response, BRAFKD and CRAFKD acceptor probes, Fig. 2c; for induction of RAF dimerization in kinase inhibitor library screen: collection of 184 compounds, Fig. 5a
[5] = target: CRAF homodimers (Homo sapiens, UniProt P04049); experiment: BRET biosensor CRAF homodimers; type: cell-based; conditions: Fig. 2c
Chain of CRAF homodimers (P04049 340-648): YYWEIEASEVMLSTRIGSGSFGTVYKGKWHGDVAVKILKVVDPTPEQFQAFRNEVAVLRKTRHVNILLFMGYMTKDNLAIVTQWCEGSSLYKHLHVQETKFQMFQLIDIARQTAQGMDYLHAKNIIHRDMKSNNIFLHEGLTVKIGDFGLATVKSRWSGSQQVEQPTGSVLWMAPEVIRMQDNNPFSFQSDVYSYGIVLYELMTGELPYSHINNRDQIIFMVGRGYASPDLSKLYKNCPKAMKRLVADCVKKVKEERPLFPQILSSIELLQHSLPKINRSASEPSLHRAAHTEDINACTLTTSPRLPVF
Chain of CRAF homodimers (P04049 340-648): as above

[6] = target: BRAFKD F595R (Homo sapiens, UniProt P15056, F595R); experiment: BRET saturation curves, BRAF R spine mutant; type: cell-based; conditions: Fig. 6c
[7] = target: BRAFKD WT / BRAFKD WT (Homo sapiens, UniProt P15056); type: cell-based; conditions: 33 nM; Fig. 1e
[8] = target: BRAF/KSR1 dimers (Homo sapiens, UniProt P15056+Q8IVT5); experiment: BRET biosensor BRAF/KSR1 dimers; type: cell-based; conditions: Fig. 2c
[9] = target: BRAFKD WT / BRAFKD R509H (Homo sapiens, UniProt P15056, R509H); type: cell-based; conditions: 33 nM; Fig. 1e
[10] = target: BRAF/CRAF dimers (Homo sapiens, UniProt P04049+P15056); experiment: Co-immunoprecipitation of full-length GFP-CRAF and Flag-BRAF; type: cell-based; conditions: SB202190 and SB203580 10 μM; Fig. 4d
[11] = target: BRAF/BRAF dimers (Homo sapiens, UniProt P15056); experiment: Co-immunoprecipitation of full-length BRAF/BRAF dimers; type: cell-based; conditions: 10 μM; Fig. 4e
[12] = system: ERK phosphorylation; experiment: ERK phosphorylation in RAF-expressing HEK293T cells; type: cell-based; conditions: 2 μM, Fig. 4f
[13] = target: BRAFKD T529M / BRAFKD T529M (Homo sapiens, UniProt P15056, T529M); experiment: BRET dose-response, BRAFKD T529M gatekeeper mutant homodimerization; type: cell-based; conditions: Fig. 4g
[14] = target: T2, CRAFKD / BRAFKD (Homo sapiens, UniProt P04049+P15056); experiment: BRET dose-response, CAAX-boxed CRAFKD/BRAFKD biosensor; type: cell-based; conditions: 10 μM; Fig. 4b
[15] = target: KSR1KD / MEK1 (Homo sapiens, UniProt Q8IVT5); experiment: BRET selectivity assay, KSR1KD/MEK1 pair; type: cell-based; conditions: 10 μM; Fig. 4b
Chain of KSR1KD / MEK1 (Q8IVT5 602-921): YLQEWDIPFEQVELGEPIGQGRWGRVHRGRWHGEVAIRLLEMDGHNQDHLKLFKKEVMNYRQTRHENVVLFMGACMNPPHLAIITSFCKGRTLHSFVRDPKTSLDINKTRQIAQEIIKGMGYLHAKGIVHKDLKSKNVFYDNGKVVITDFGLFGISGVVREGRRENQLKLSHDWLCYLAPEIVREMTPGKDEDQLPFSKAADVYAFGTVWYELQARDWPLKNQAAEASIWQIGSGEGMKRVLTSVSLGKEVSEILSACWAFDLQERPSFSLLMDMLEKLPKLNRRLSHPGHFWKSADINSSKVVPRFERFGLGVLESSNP
Chain of KSR1KD / MEK1 (Q02750 whole entry partner): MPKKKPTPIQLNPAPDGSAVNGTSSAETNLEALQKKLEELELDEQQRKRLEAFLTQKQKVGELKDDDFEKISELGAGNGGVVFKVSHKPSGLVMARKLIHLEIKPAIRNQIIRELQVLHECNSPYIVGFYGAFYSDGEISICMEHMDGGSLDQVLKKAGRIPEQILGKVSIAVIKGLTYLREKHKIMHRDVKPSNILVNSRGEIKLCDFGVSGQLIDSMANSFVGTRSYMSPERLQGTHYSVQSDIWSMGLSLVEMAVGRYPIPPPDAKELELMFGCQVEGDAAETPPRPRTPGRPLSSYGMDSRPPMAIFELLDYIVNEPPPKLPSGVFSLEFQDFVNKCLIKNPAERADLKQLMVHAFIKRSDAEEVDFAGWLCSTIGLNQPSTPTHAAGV

[16] = target: T2, CRAFKD / BRAFKD; experiment: High-throughput chemical screen with CRAFKD/BRAFKD biosensor; type: cell-based; conditions: 10 μM screening concentration; Fig. 4a
[17] = Solubility in aqueous solution; type: physicochemical

effect on PERK kinase domain dimerization [1]: weakly promoted dimerization | effect on BRAF kinase domain dimerization relative to apo state [2]: inhibited dimer formation
Compound: Nc1ncnc2c1ncn2[C@@H]1O[C@H](COP(=O)(O)OP(=O)(O)O)[C@@H](O)[C@H]1O [ADP]

effect on BRAF kinase domain dimerization relative to apo state [2]: inhibited dimer formation
Compound: Nc1ncnc2c1ncn2[C@@H]1O[C@H](COP(=O)(O)OP(=O)(O)NP(=O)(O)O)[C@@H](O)[C@H]1O [AMP-PNP]

effect on BRET50 in titration experiments [3]: significantly reduced | RAFKD dimer induction profile across biosensor panel [4]: strong and broad inducers | induction of CRAF homodimers [5]: strongly promoted | dimerization of BRAF R spine mutant (F595R), BRET saturation curves [6]: promote dimerization
Compound: Cc1ccc(NC(=O)c2cccc(C(C)(C)C#N)c2)cc1Nc1ccc2ncn(C)c(=O)c2c1 [AZ-628]

induction of RAF dimerization in kinase inhibitor library screen [4]: significant inducers of RAF dimerization
Compound: Cc1nc(Nc2ncc(C(=O)Nc3c(C)cccc3Cl)s2)cc(N2CCN(CCO)CC2)n1 [Dasatinib]

time at which BRET induction plateaued [7]: ≤ 60 min | time at which activity (BRET induction) could first be detected [7]: 5 min | induction of BRAF/KSR1 dimers [8]: strongly induced | effect on BRET50 in titration experiments [3]: significantly reduced | RAFKD dimer induction profile across biosensor panel [4]: strong and broad inducers | response of R509H mutant biosensor to drug [9]: insensitive
Compound: OCCn1cc(-c2ccc3c(c2)CC/C3=N\O)c(-c2ccncc2)n1 [GDC-0879]

effect on PERK kinase domain dimerization [1]: potently promotes
Compound: Cn1cc(-c2ccc3c(c2)CCN3C(=O)Cc2cccc(C(F)(F)F)c2)c2c(N)ncnc21 [GSK2606414, 7-Methyl-5-(1-{[3-(trifluoromethyl)phenyl]acetyl}-2,3-dihydro-1H-indol-5-yl)-7H-p yrrolo[2,3-d]pyrimidin-4-amine]

induction of RAF dimerization in kinase inhibitor library screen [4]: significant inducers of RAF dimerization
Compound: Cc1cn(-c2cc(NC(=O)c3ccc(C)c(Nc4nccc(-c5cccnc5)n4)c3)cc(C(F)(F)F)c2)cn1 [Nilotinib]

RAFKD dimer induction profile across biosensor panel [4]: relatively weak RAFKD dimer inducers
Compound: CCCS(=O)(=O)Nc1ccc(F)c(C(=O)c2c[nH]c3ncc(Cl)cc23)c1F [PLX4720]

BRAF/CRAF dimerization by co-immunoprecipitation [10]: increased BRAF/CRAF dimerization | BRAF homodimerization by co-immunoprecipitation [11]: induced BRAF homodimerization | effect of T529M gatekeeper mutant on inhibitor-induced BRAFKD homodimerization [13]: reduces | effect on CRAFKD/BRAFKD BRET signal [14]: induces | effect on BRET produced by the KSR1KD/MEK1 pair [15]: does not alter | effect on BRAF kinase domain dimerization relative to apo state [2]: promoted dimerization | rank among inducers of CRAFKD/BRAFKD dimerization in HTS [16]: most potent inducer
Compound: Oc1ccc(-c2nc(-c3ccncc3)c(-c3ccc(F)cc3)[nH]2)cc1 [SB202190]
ERK activity in RAF transfected cells [12]: stimulated ERK activity

Compound: C[S+]([O-])c1ccc(-c2nc(-c3ccncc3)c(-c3ccc(F)cc3)[nH]2)cc1 (centres unmarked) [SB203580]
ERK activity in RAF transfected cells [12]: stimulated ERK activity

solubility in aqueous solution [17]: limited solubility | RAFKD dimer induction profile across biosensor panel [4]: relatively weak RAFKD dimer inducers
Compound: CNC(=O)c1cc(Oc2ccc(NC(=O)Nc3ccc(Cl)c(C(F)(F)F)c3)cc2)ccn1 [Sorafenib]

effect on PERK kinase domain dimerization [1]: strongly promoted dimerization
Compound: Cn1cc(-c2ccc3c(c2)CCN3C(=O)Cc2cc(F)cc(C(F)(F)F)c2)c2c(N)ncnc21 [close structural analog of GSK2606414, 5-(1-{[3-Fluoro-5-(trifluoromethyl)phenyl]acetyl}-2,3-dihydro-1H-indol-5-yl)-7-methyl-7H-pyrrolo[2,3-d]pyrimidin-4-amine]
